pIC50: −log10 of the molar value. Counter-ions that a name gives are not always drawn. Like-named read-outs stand apart in the source and are kept apart here.
Experiments:
[1] = tested on: Phosphorylated Ribosomal Protein S6 (RPS6); test: THP-1 RPS6 ELISA Assay; type: cell-based, Human; conditions: THP-1 cells, read-out: PI3Kγ_THP1_RPS6_ELISA IC50
Method: To measure the Phosphorylated Ribosomal Protein S6 (RPS6) in cell lysates, THP-1 cells (Human Acute Monocytic Leukemia) are purchased from ATCC (Manassas, Va.) and maintained in RPMI with 10% FBS (Gibco/Life Technologies, Carlsbad, Calif.). For the assay, THP-1 cells are serum starved overnight in RPMI, then plated in RPMI (2×10^5 cells/well in 90 μL) into 96-well flat-bottom tissue culture treated plates (Corning, Corning, N.Y.), in the presence or absence of a concentration range of test compounds. Covered plates are incubated for 2 hours at 37° C., 5% CO2 then treated with or without 10 nM MCP-1 (MYBioSource, San Diego, Calif.) for 15 minutes at 37° C., 5% CO2. Plates are centrifuged at 1600 RPM and supernatants are removed. Cells are lysed in Lysis Buffer (Cell Signaling, Danvers, Mass.) with Protease Inhibitor (Calbiochem/EMD, Germany), PMSF (Sigma, St Louis Mo.), HALTS (Thermo Fisher, Rockford, Ill.) for 30 min on wet ice. Cell lysates are frozen at −80° C. before testing. The lysates are tested in the Human/Mouse/Rat Phospho-RPS6 ELISA (R&D Systems, Inc. Minn, Minn.). The plate is measured using a microplate reader (SpectraMax M5 —Molecular Devices, LLC Sunnyvale, Calif.) set to 450 nm with a wavelength correction of 540. IC50 determination is performed by fitting the curve of inhibitor percent inhibition versus the log of the inhibitor concentration using the GraphPad Prism 5.0 software.

[2] = target: PI3Kγ (p110γ) Recombinant Human Protein (Homo sapiens (Human), UniProt P48736); test: PI3K-γ Scintillation Proximity Assay; type: biochemical; conditions: read-out: PI3Kγ IC50
How it was run: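 Recombinant human p110γ assayed at room temperature in 20 mM MOPS pH 6.7, 10 mM MgCl2, 5 mM DTT, 0.03% CHAPS, 2% DMSO, with 20 μM PIP2 and 2 μM ATP plus [γ-33P]ATP. Product captured on WGA SPA beads overnight and counted; IC50 fitted from % of solvent-control activity versus log inhibitor concentration.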

[3] = target: PI3Kδ (p110δ/p85α) Recombinant Human Protein (Homo sapiens (Human), UniProt O00329); test: PI3Kδ Scintillation Proximity Assay; type: biochemical
How it was run: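 Recombinant human p110δ/p85α (3.4 nM) with 20 μM PIP2 and 2 μM ATP plus [γ-33P]ATP, in 20 mM MOPS pH 6.7, 10 mM MgCl2, 5 mM DTT, 0.03% CHAPS, 2% DMSO; 120 min at room temperature. Product captured on WGA SPA beads, scintillation counted; IC50 from percent-of-control curves.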

PI3Kγ (p110γ) Recombinant Human Protein, sequence (P48736 whole entry): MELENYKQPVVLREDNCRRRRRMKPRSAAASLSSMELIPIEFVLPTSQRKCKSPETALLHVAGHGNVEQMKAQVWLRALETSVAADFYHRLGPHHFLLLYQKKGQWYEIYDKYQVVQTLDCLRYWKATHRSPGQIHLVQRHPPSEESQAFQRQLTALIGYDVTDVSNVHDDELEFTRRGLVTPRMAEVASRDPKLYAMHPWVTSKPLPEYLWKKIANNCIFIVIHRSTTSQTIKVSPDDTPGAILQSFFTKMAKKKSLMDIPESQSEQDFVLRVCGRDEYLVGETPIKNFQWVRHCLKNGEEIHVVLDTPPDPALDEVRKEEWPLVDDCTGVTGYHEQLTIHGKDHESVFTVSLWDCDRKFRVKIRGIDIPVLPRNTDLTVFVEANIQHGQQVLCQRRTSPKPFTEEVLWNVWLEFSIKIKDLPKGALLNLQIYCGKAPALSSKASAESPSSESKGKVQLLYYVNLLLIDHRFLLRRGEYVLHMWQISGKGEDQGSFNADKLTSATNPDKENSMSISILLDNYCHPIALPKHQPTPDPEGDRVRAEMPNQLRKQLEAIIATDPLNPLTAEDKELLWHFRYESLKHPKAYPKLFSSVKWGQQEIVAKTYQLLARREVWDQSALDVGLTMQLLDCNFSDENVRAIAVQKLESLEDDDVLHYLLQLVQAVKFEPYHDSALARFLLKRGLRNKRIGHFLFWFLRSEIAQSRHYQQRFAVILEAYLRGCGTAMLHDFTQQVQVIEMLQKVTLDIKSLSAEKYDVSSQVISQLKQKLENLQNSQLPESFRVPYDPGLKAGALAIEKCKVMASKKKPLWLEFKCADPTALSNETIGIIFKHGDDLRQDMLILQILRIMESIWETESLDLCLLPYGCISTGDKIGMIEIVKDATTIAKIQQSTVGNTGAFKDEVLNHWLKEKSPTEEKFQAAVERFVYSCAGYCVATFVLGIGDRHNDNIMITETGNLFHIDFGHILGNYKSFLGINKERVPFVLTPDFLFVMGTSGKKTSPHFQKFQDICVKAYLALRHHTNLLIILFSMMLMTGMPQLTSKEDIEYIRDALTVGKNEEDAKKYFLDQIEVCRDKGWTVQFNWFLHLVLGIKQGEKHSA
PI3Kδ (p110δ/p85α) Recombinant Human Protein, sequence (O00329 whole entry): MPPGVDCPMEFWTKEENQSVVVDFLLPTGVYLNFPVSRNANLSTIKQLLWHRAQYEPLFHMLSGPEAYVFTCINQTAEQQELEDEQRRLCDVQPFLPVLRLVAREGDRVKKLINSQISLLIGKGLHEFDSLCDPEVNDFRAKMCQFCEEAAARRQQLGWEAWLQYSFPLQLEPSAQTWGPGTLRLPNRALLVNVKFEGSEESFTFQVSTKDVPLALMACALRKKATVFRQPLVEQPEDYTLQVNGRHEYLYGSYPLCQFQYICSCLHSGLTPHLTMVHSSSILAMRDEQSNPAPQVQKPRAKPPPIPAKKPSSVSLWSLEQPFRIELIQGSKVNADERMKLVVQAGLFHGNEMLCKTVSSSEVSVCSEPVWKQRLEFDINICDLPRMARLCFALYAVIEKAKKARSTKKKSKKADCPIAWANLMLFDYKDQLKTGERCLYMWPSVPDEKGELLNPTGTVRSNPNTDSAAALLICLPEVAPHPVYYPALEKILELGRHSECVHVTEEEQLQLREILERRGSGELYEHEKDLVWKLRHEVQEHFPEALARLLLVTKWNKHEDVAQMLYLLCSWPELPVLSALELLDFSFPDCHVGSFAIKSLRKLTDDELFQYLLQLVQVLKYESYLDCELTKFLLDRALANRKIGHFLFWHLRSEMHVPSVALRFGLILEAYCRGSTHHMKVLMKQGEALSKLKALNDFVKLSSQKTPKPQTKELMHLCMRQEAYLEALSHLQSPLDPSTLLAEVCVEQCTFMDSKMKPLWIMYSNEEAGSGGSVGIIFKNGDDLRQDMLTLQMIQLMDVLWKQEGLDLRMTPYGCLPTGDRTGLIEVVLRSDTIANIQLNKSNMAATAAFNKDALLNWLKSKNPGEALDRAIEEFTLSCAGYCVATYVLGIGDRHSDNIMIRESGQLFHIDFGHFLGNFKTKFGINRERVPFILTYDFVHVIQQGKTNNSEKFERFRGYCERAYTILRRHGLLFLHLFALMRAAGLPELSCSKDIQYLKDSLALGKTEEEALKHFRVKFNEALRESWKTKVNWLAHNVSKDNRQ
PI3Kδ (p110δ/p85α) Recombinant Human Protein, sequence (P27986 whole entry partner): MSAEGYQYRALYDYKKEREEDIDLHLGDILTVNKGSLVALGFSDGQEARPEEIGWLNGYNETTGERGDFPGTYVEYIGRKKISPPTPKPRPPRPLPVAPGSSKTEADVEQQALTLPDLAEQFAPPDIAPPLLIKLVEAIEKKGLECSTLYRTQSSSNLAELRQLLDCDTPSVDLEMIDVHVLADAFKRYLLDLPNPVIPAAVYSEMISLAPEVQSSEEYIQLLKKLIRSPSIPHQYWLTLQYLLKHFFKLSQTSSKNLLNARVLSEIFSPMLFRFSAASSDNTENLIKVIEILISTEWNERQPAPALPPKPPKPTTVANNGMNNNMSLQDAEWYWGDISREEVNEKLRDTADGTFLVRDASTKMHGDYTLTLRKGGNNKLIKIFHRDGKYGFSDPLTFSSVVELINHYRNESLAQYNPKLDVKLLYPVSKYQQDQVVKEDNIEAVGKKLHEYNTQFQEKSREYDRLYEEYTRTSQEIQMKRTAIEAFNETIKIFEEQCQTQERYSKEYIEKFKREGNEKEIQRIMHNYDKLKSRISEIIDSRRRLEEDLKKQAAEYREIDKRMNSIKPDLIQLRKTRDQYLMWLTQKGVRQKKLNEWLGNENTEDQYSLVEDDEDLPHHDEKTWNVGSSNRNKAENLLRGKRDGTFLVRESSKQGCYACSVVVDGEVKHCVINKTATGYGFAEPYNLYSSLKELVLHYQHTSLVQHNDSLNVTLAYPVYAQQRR

Structure (SMILES) | pIC50 ([1]; Homo sapiens) | pIC50 [2] | pIC50 [3] | pIC50 [1]
Cc1ccc(S(=O)(=O)NC23CCC(C(O)c4ccccc4)(CC2)OC3)cc1-c1cnc2c(N)ncnn12 (racemic) [Example 438, 3-(4-Aminoimidazo[1,2-f][1,2,4]triazin-7-yl)-N-(1-(hydroxy(phenyl)methyl)-2-oxabicyclo[2.2.2]octan-4-yl)-4-methylbenzenesulfonamide trifluoroacetate salt (racemic)] | > 7.00 | > 7.00 | 6.30 to 7.00 | 
Cc1ccc(S(=O)(=O)N2C[C@@H]3CCO[C@@H]3C2)cc1-c1cnc2c(N)ncnn12 (relative stereo) [Example 211, 7-(5-((cis-Hexahydro-5H-furo[2,3-c]pyrrol-5-yl)sulfonyl)-2-methylphenyl)imidazo[2,1-f][1,2,4]triazin-4-amine] | 6.00 to 6.30 | > 7.00 | 5.70 to 6.30 | 
Cc1nc(N)c2ncc(-c3cc(S(=O)(=O)NCC(O)C(F)(F)F)ccc3C)n2n1 (single isomer, unassigned) [Example 266, 3-(4-Amino-2-methylimidazo[1,2-f][1,2,4]triazin-7-yl)-4-methyl-N-(3,3,3-trifluoro-2-hydroxypropyl)benzenesulfonamide (single enantiomer isolated)] |  | > 7.00 | 6.30 to 7.00 | 6.30 to 7.00
Cc1nc(N)c2ncc(-c3cc(S(=O)(=O)NCC(O)C(F)(F)F)ccc3C)n2n1 (single isomer, unassigned) [Example 267, 3-(4-Amino-2-methylimidazo[1,2-f][1,2,4]triazin-7-yl)-4-methyl-N-(3,3,3-trifluoro-2-hydroxypropyl)benzenesulfonamide (single enantiomer isolated)] |  | > 7.00 | 6.30 to 7.00 | 6.30 to 7.00
Cc1ccc(S(=O)(=O)N[C@H]2CC[C@@H](C#N)C2)cc1-c1cnc2c(N)nc(C(F)(F)F)nn12 (single isomer, unassigned) [Example 320] |  | > 7.00 | 6.30 to 7.00 | 6.30 to 7.00
Cc1ccc(S(=O)(=O)N[C@H]2CC[C@@H](C#N)C2)cc1-c1cnc2c(N)nc(C(F)(F)F)nn12 (single isomer, unassigned) [Example 321] |  | > 7.00 | > 7.00 | > 7.00
Cc1ccc(S(=O)(=O)N[C@H]2CC[C@H](O)CC2)cc1-c1cnc2c(N)cccn12 [Example 1, 3-(8-Aminoimidazo[1,2-a]pyridin-3-yl)-N-(trans-4-hydroxycyclohexyl)-4-methylbenzenesulfonamide trifluoroacetate] | < 6.00 | 6.30 to 7.00 | 5.70 to 6.30 | 
CCS(=O)(=O)Nc1cc(-c2cnc3c(N)cccn23)cnc1F [Example 2, N-[5-(8-Aminoimidazo[1,2-a]pyridin-3-yl)-2-fluoropyridin-3-yl]ethanesulfonamide bis(trifluoroacetate)] | < 6.00 | 6.30 to 7.00 | 5.70 to 6.30 | 
Cc1ccc(S(=O)(=O)N[C@H]2CC[C@H](O)CC2)cc1-c1cnc2c(N)cc(Cl)cn12 [Example 4, 3-(8-Amino-6-chloroimidazo[1,2-a]pyridin-3-yl)-N-(trans-4-hydroxycyclohexyl)-4-methylbenzenesulfonamide trifluoroacetate] | > 7.00 | > 7.00 | 6.30 to 7.00 | 
CC(=O)Nc1cc(Cl)cn2c(-c3cc(S(=O)(=O)N[C@H]4CC[C@H](O)CC4)ccc3C)cnc12 [Example 5, N-[6-chloro-3-(5-{[(trans-4-hydroxycyclohexyl)amino]sulfonyl}-2-methylphenyl)imidazo[1,2-a]pyridin-8-yl]acetamide] | 6.30 to 7.00 | > 7.00 | 6.30 to 7.00 | 
Cc1ccc(S(=O)(=O)N[C@H]2CC[C@H](O)CC2)cc1-c1cnc2c(N)cc(-c3cnn(C)c3)cn12 [Example 8, 3-[8-Amino-6-(1-methyl-1H-pyrazol-4-yl)imidazo[1,2-a]pyridin-3-yl]-N-(trans-4-hydroxycyclohexyl)-4-methylbenzenesulfonamide bis(trifluoroacetate)] | < 6.00 | > 7.00 | 6.30 to 7.00 | 
Cc1ccc(S(=O)(=O)N[C@H]2CC[C@H](O)CC2)cc1-c1cnc2c(N)cc(-c3cncnc3)cn12 [Example 9, 3-(8-Amino-6-pyrimidin-5-ylimidazo[1,2-a]pyridin-3-yl)-N-(trans-4-hydroxycyclohexyl)-4-methylbenzenesulfonamide] | < 6.00 | > 7.00 | 5.70 to 6.30 | 
Cc1ccc(S(=O)(=O)N[C@H]2CC[C@H](O)CC2)cc1-c1cnc2c(N)cc(-c3ccnn3C)cn12 [Example 10, 3-[8-Amino-6-(1-methyl-1H-pyrazol-5-yl)imidazo[1,2-a]pyridin-3-yl]-N-(trans-4-hydroxycyclohexyl)-4-methylbenzenesulfonamide bis(trifluoroacetate)] | < 6.00 | > 7.00 | 6.30 to 7.00 | 
Cc1ccc(S(=O)(=O)N[C@H]2CC[C@H](O)CC2)cc1-c1cnc2c(N)c(Cl)ccn12 [Example 11, 3-(8-Amino-7-chloroimidazo[1,2-a]pyridin-3-yl)-N-(trans-4-hydroxycyclohexyl)-4-methylbenzenesulfonamide trifluoroacetate] | > 7.00 | > 7.00 | 5.70 to 6.30 | 
Cc1ccc(S(=O)(=O)N[C@H]2CC[C@H](O)CC2)cc1-c1cnc2c(N)c(-c3cnn(C)c3)ccn12 [Example 12, 3-[8-Amino-7-(1-methyl-1H-pyrazol-4-yl)imidazo[1,2-a]pyridin-3-yl]-N-(trans-4-hydroxycyclohexyl)-4-methylbenzenesulfonamide] | 6.30 to 7.00 | > 7.00 | 6.30 to 7.00 | 
Cc1ccc(S(=O)(=O)N[C@H]2CC[C@H](O)CC2)cc1-c1cnc2c(N)nccn12 [Example 13, 3-(8-Aminoimidazo[1,2-a]pyrazin-3-yl)-N-(trans-4-hydroxycyclohexyl)-4-methylbenzenesulfonamide] | 6.30 to 7.00 | > 7.00 | 6.30 to 7.00 | 
CCS(=O)(=O)Nc1cc(-c2cnc3c(N)nccn23)cnc1F [Example 14, N-[5-(8-Aminoimidazo[1,2-a]pyrazin-3-yl)-2-fluoropyridin-3-yl]ethanesulfonamide bis(trifluoroacetate)] | < 6.00 | > 7.00 | > 7.00 | 
Cc1ccc(S(=O)(=O)NCC2(C)COC2)cc1-c1cnc2c(N)nccn12 [Example 15, 3-(8-Aminoimidazo[1,2-a]pyrazin-3-yl)-4-methyl-N-[(3-methyloxetan-3-yl)methyl]benzenesulfonamide trifluoroacetate] | < 6.00 | > 7.00 | 5.70 to 6.30 | 
Cc1ccc(S(=O)(=O)N[C@H]2CC[C@H](O)CC2)cc1-c1cnc2c(N)nc(Br)cn12 [Example 16, 3-(8-Amino-6-bromoimidazo[1,2-a]pyrazin-3-yl)-N-(trans-4-hydroxycyclohexyl)-4-methylbenzenesulfonamide] | > 7.00 | > 7.00 | > 7.00 | 
Cc1ccccc1-c1cn2c(-c3cc(S(=O)(=O)N[C@H]4CC[C@H](O)CC4)ccc3C)cnc2c(N)n1 [Example 17, 3-[8-Amino-6-(2-methylphenyl)imidazo[1,2-a]pyrazin-3-yl]-N-(trans-4-hydroxycyclohexyl)-4-methylbenzenesulfonamide] | 6.30 to 7.00 | > 7.00 | 6.30 to 7.00 | 
Cc1ccc(-c2cn3c(-c4cc(S(=O)(=O)N[C@H]5CC[C@H](O)CC5)ccc4C)cnc3c(N)n2)cc1 [Example 18, 3-[8-Amino-6-(4-methylphenyl)imidazo[1,2-a]pyrazin-3-yl]-N-(trans-4-hydroxycyclohexyl)-4-methylbenzenesulfonamide] | > 7.00 | > 7.00 | 6.30 to 7.00 | 
Cc1cccc(-c2cn3c(-c4cc(S(=O)(=O)N[C@H]5CC[C@H](O)CC5)ccc4C)cnc3c(N)n2)c1 [Example 19, 3-[8-Amino-6-(3-methylphenyl)imidazo[1,2-a]pyrazin-3-yl]-N-(trans-4-hydroxycyclohexyl)-4-methylbenzenesulfonamide] | > 7.00 | > 7.00 | 6.30 to 7.00 | 

Reference: patent US10479795B2 (Incyte Corporation, priority 2016, dated 2019)
